The values below come from patent publication US20240173419A1, “CDK2 DEGRADERS AND USES THEREOF” (Kymera Therapeutics, Inc., priority 2022, published 2024).

This experiment addresses T1, CDK2 (Homo sapiens, UniProt P24941).
T1 construct: endogenous in cells; host or cells: MKN1 cells
Description: CDK2 degradation in MKN1 cells (AlphaLISA). The class given is cell-based. Conditions: 14 h incubation; for DC50: read-out: CDK2 degradation 14 h: Mean external-Abs DC50. In a few lines:
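DC50 from four-parameter logistic fit of AlphaLISA CDK2 signal, corrected for no-cell wells. Lysates came from MKN1 cells, 2e4 per well, exposed 14 h at 37° C to compound at 0.001 nM-10 μM (1:5 series, 11 doses) in 0.1% DMSO.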

A value given as a limit tells only on which side of the number the result lay.

With `Cc1cc(S(=O)(=O)NC2CCC(CN3CCN(c4ccc(C(=O)NC5CCC(=O)NC5=O)cc4C)CC3)CC2)ccc1Nc1ncc(C(F)(F)F)c(N2CCCC(C)(O)C2)n1` (stereo not shown) [I-1126], the “CDK2 degradation 14 h: Average Dmax %” value was “A (A (>75% o))” and the DC50 lay in the range of 100 to 500 nM.
In the same order, the values of `Cc1cc(S(=O)(=O)NC2CCC(CN3CCC(c4ccc(C5CCC(=O)NC5=O)c(F)c4)CC3)CC2)ccc1Nc1ncc(C(F)(F)F)c(N2CCCC(C)(O)C2)n1` (stereo not shown) [I-1131] are “A (A (>75% o))” and less than 100 nM.
Regarding `Cc1cc(S(=O)(=O)NC2CCC(CN3CCN(c4ccc(C5CCC(=O)NC5=O)cc4F)C(C)C3)CC2)ccc1Nc1ncc(C(F)(F)F)c(N2CCCC(C)(O)C2)n1` (stereo not shown) [I-1137], the “CDK2 degradation 14 h: Average Dmax %” value is listed as “A (A (>75% o))” and the 50% degradation concentration (DC50) was less than 100 nM.
In the same order, the values of `Cc1cc(S(=O)(=O)NC2CCC(CN3CCN(c4ccc(C5CCC(=O)NC5=O)c(C(F)(F)F)c4)CC3)CC2)ccc1Nc1ncc(C(F)(F)F)c(N2CCCC(C)(O)C2)n1` (stereo not shown) [I-1138] are “B (B (>50% -75%))” and greater than 1000 nM.
In the case of `Cc1cc(S(=O)(=O)NC2CCN(CC3CCN(c4ccc(C5CCC(=O)NC5=O)cc4F)CC3)CC2F)ccc1Nc1ncc(C(F)(F)F)c(N2CCCC(C)(O)C2)n1` (stereo not shown) [I-1140], the “CDK2 degradation 14 h: Average Dmax %” value is recorded as “A (A (>75% o))” and the 50% degradation concentration (DC50) is less than 100 nM.
On the same counts, the results for `Cc1cc(S(=O)(=O)NC2CCN(CC3CCN(c4ccc(C5CCC(=O)NC5=O)cc4F)CC3)CC2F)ccc1Nc1ncc(C(F)(F)F)c(N2CCCC(C)(O)C2)n1` (stereo not shown) [I-1141] are “A (A (>75% o))” and less than 100 nM.
Regarding `Cc1cc(S(=O)(=O)NC2CCC(CN3CCN(c4ncc(C5CCC(=O)NC5=O)cc4F)CC3)CC2)ccc1Nc1ncc(C(F)(F)F)c(N2CCCC(C)(O)C2)n1` (stereo not shown) [I-1142], the “CDK2 degradation 14 h: Average Dmax %” value is “A (A (>75% o))” and the DC50 is less than 100 nM.
On the same counts, the results for `Cc1cc(S(=O)(=O)NC2CCC(CN3CCN(c4cccc(NC5CCC(=O)NC5=O)c4F)CC3)CC2)ccc1Nc1ncc(C(F)(F)F)c(N2CCCC(C)(O)C2)n1` (stereo not shown) [I-1143] are “A (A (>75% o))” and less than 100 nM.
In the case of `Cc1cc(S(=O)(=O)NC2CCC(CN3CCN(c4cc(F)cc(NC5CCC(=O)NC5=O)c4)CC3)CC2)ccc1Nc1ncc(C(F)(F)F)c(N2CCCC(C)(O)C2)n1` (stereo not shown) [I-1144], the “CDK2 degradation 14 h: Average Dmax %” value is “A (A (>75% o))” and the 50% degradation concentration (DC50) is 100 to 500 nM.
On to `Cc1cc(S(=O)(=O)NC2CCC(CN3CCN(c4cccc5c4n(C)c(=O)n5C4CCC(=O)NC4=O)CC3)CC2)ccc1Nc1ncc(C(F)(F)F)c(N2CCCC(C)(O)C2)n1` (stereo not shown) [I-1145], for which the “CDK2 degradation 14 h: Average Dmax %” value is recorded as “A (A (>75% o))” and the 50% degradation concentration (DC50) is less than 100 nM.
Consider `Cc1cc(S(=O)(=O)NC2CCC(CN3CCN(c4c(C)cc(C5CCC(=O)NC5=O)cc4F)CC3)CC2)ccc1Nc1ncc(C(F)(F)F)c(N2CCCC(C)(O)C2)n1` (stereo not shown) [I-1146], for which the “CDK2 degradation 14 h: Average Dmax %” value is given as “A (A (>75% o))” and the half-maximal degradation concentration (DC50) was less than 100 nM.
For `Cc1cc(S(=O)(=O)N2CCC(CN(C)C3CCN(c4cccc5c4n(C)c(=O)n5C4CCC(=O)NC4=O)CC3)CC2)ccc1Nc1nccc(-c2cnc(C)n2C(C)C)n1` (stereo not shown) [I-1152], the “CDK2 degradation 14 h: Average Dmax %” value is “A (A (>75% o))” and the DC50 was less than 100 nM.
As for `Cc1cc(S(=O)(=O)N2CCC(CN(C)C3CCN(c4cccc5c4n(C)c(=O)n5C4CCC(=O)NC4=O)CC3)CC2)ccc1Nc1ncc(C(F)(F)F)c(C2CCCCC2)n1` (stereo not shown) [I-1153], the “CDK2 degradation 14 h: Average Dmax %” value is given as “A (A (>75% o))” and the DC50 lay in the range of 100 to 500 nM.
For the compound `Cc1cc(S(=O)(=O)N2CCC(CN(C)C3CCN(c4cccc5c4n(C)c(=O)n5C4CCC(=O)NC4=O)CC3)CC2)ccc1Nc1ncc(C(F)(F)F)c(-c2cnn(C)c2)n1` (stereo not shown) [I-1155], the “CDK2 degradation 14 h: Average Dmax %” value is on record as “A (A (>75% o))” and the DC50 is less than 100 nM.
